Key:
[1] = tested on: ABL1(F317L), FYN, and LYN; experiment: MMS multiple-target analysis, Davis et al. dataset

| SMILES | concentration of component in Mixture B required to inhibit all on-targets by at least 90% (CDC2L5 and TRKC) | concentration of component in Mixture A required to inhibit all on-targets by at least 90% [1] |
| --- | --- | --- |
| Cc1ccc(F)c(NC(=O)Nc2ccc(-c3cccc4[nH]nc(N)c34)cc2)c1 [ABT-869, Linifanib] | 226 nM |  |
| COc1cc2c(Oc3ccc(NC(=O)C4(C(=O)Nc5ccc(F)cc5)CC4)cc3F)ccnc2cc1OCCCN1CCOCC1 [EXEL-2880/GSK-1363089, Foretinib] | 40.0 nM |  |
| CSc1cccc(Nc2ncc3cc(-c4c(Cl)cccc4Cl)c(=O)n(C)c3n2)c1 [PD-173955] |  | 4.69 nM |
| Cc1ccc(NC(=O)c2ccc(CN3CCN(C)CC3)cc2)cc1Nc1nc(-c2cccnc2)cs1 [masatinib, Masitinib] |  | 661 nM |

Source: publication PMC10769483, “Death by a thousand cuts through kinase inhibitor combinations that maximize selectivity and enable rational multitargeting” (eLife, 2023)
